Measured values reported in patent US8084649B2, “Herbicides” (Syngenta Crop Protection, inc., priority 2007, dated 2011).

Columns and labels:
Type in all cases: in vivo
[1] = system: Alopecurus myosuroides (ALOMY); experiment: Pre-emergence herbicidal activity, glasshouse pot test; details: Alopecurus myosuroides, 480 h, rate 500 g/ha, evaluated after 20 days, read-out: Pre-emergence activity, ALOMY (100=total damage to plant; 0=no damage to plant)
Description: (§1) Monocotyledonous and dicotyledonous test plants were sown in sterilised standard soil in pots. After cultivation for one day (pre-emergence) or after 10 days cultivation (post-emergence) under controlled conditions in a glasshouse, the plants were sprayed with an aqueous spray solution derived from the formulation of the technical active ingredient in 0.6 ml acetone and 45 ml formulation solution containing 10.6% Emulsogen EL (Registry number 61791-12-6), 42.2% N-methylpyrrolidone, 42.2% dipropylene glycol monomethyl ether (Registry number 34590-94-8) and 0.2% X-77 (Registry number 11097-66-8). The test plants were then grown in a greenhouse under optimum conditions until, 14 or 15 days later for post-emergence and 20 days for pre-emergence, the test was evaluated (100=total damage to plant; 0=no damage to plant). Alopecurus myosuroides (ALOMY), Avena fatua (AVEFA), Lolium perenne (LOLPE), Setaria faberi (SETFA), Digitaria sanguinalis (DIGSA), Echinochloa crus-galli (ECHCG) Pre-Emergence Activity

Avena fatua (AVEFA) [2] = experiment: as above; details: Avena fatua, 480 h, rate 500 g/ha, evaluated after 20 days, read-out: Pre-emergence activity, AVEFA (100=total damage to plant; 0=no damage to plant)
Description: as §1

[3] = system: Digitaria sanguinalis (DIGSA); experiment: as above; details: Digitaria sanguinalis, 480 h, rate 500 g/ha, evaluated after 20 days, read-out: Pre-emergence activity, DIGSA (100=total damage to plant; 0=no damage to plant)
Description: as §1

[4] = system: Echinochloa crus-galli (ECHCG); experiment: as above; details: Echinochloa crus-galli, 480 h, rate 500 g/ha, evaluated after 20 days, read-out: Pre-emergence activity, ECHCG (100=total damage to plant; 0=no damage to plant)
Description: as §1

Lolium perenne (LOLPE) [5] = experiment: as above; details: Lolium perenne, 480 h, rate 500 g/ha, evaluated after 20 days, read-out: Pre-emergence activity, LOLPE (100=total damage to plant; 0=no damage to plant)
Description: as §1

Setaria faberi (SETFA) [6] = experiment: as above; details: Setaria faberi, 480 h, rate 500 g/ha, evaluated after 20 days, read-out: Pre-emergence activity, SETFA (100=total damage to plant; 0=no damage to plant)
Description: as §1

[7] = system: Alopecurus myosuroides (ALOMY); experiment: Post-emergence herbicidal activity, glasshouse pot test; details: Alopecurus myosuroides, evaluated after 14 or 15 days, read-out: Post-emergence activity, ALOMY (100=total damage to plant; 0=no damage to plant); for pest or weed control at 125 g/ha: rate 125 g/ha
Description: as §1, with “Post-Emergence” for “Pre-Emergence”

Avena fatua (AVEFA) [8] = experiment: as above; details: Avena fatua, evaluated after 14 or 15 days, read-out: Post-emergence activity, AVEFA (100=total damage to plant; 0=no damage to plant); for pest or weed control at 125 g/ha: rate 125 g/ha
Description: as §1, with “Post-Emergence” for “Pre-Emergence”

[9] = system: Digitaria sanguinalis (DIGSA); experiment: as above; details: Digitaria sanguinalis, evaluated after 14 or 15 days, read-out: Post-emergence activity, DIGSA (100=total damage to plant; 0=no damage to plant); for pest or weed control at 125 g/ha: rate 125 g/ha
Description: as §1, with “Post-Emergence” for “Pre-Emergence”

Lolium perenne (LOLPE) [10] = experiment: as above; details: Lolium perenne, evaluated after 14 or 15 days, read-out: Post-emergence activity, LOLPE (100=total damage to plant; 0=no damage to plant); for pest or weed control at 125 g/ha: rate 125 g/ha
Description: as §1, with “Post-Emergence” for “Pre-Emergence”

Setaria faberi (SETFA) [11] = experiment: as above; details: Setaria faberi, evaluated after 14 or 15 days, read-out: Post-emergence activity, SETFA (100=total damage to plant; 0=no damage to plant); for pest or weed control at 125 g/ha: rate 125 g/ha
Description: as §1, with “Post-Emergence” for “Pre-Emergence”

[12] = system: Echinochloa crus-galli (ECHCG); experiment: as above; details: Echinochloa crus-galli, evaluated after 14 or 15 days, read-out: Post-emergence activity, ECHCG (100=total damage to plant; 0=no damage to plant); for pest or weed control at 125 g/ha: rate 125 g/ha
Description: as §1, with “Post-Emergence” for “Pre-Emergence”

Row | SMILES | pest or weed control at 500 g/ha [1] | pest or weed control at 500 g/ha (Avena fatua (AVEFA) [2]) | pest or weed control at 500 g/ha [3] | pest or weed control at 500 g/ha [4] | pest or weed control at 500 g/ha (Lolium perenne (LOLPE) [5]) | pest or weed control at 500 g/ha (Setaria faberi (SETFA) [6]) | pest or weed control at 125 g/ha [7] | pest or weed control at 125 g/ha (Avena fatua (AVEFA) [8]) | pest or weed control at 125 g/ha [9] | pest or weed control at 125 g/ha (Lolium perenne (LOLPE) [10]) | pest or weed control at 125 g/ha (Setaria faberi (SETFA) [11]) | pest or weed control at 125 g/ha [12] | pest or weed control at 500 g/ha ([7]; rate 500 g/ha) | pest or weed control at 500 g/ha (Avena fatua (AVEFA) [8]; rate 500 g/ha) | pest or weed control at 500 g/ha ([9]; rate 500 g/ha) | pest or weed control at 500 g/ha ([12]; rate 500 g/ha) | pest or weed control at 500 g/ha (Lolium perenne (LOLPE) [10]; rate 500 g/ha) | pest or weed control at 500 g/ha (Setaria faberi (SETFA) [11]; rate 500 g/ha)
1 | CCC(=O)OC1=C(c2c(CC)cc(C)cc2CC)C(=O)CC2(CCOCC2)C1 [Compound P2] | 100% | 100% | 100% | 100% | 100% | 100% | 80% | 90% | 100% | 80% | 70% |  |  |  |  |  |  | 
2 | CCc1cc(C)cc(CC)c1C1=C(OC(=O)CC(C)(C)C)CC2(CCOCC2)CC1=O [Compound P6] | 100% | 90% | 100% | 70% | 100% | 70% | 60% | 80% | 30% | 10% | 0% |  |  |  |  |  |  | 
3 | CCCCCCC(=O)OC1=C(c2c(CC)cc(C)cc2CC)C(=O)CC2(CCOCC2)C1 [Compound P10] | 100% | 100% | 100% | 100% | 100% | 100% | 100% | 100% | 80% | 90% | 70% |  |  |  |  |  |  | 
4 | CCCC(CC)C(=O)OC1=C(c2c(CC)cc(C)cc2CC)C(=O)CC2(CCOCC2)C1 (stereo not drawn) [Compound P15] | 0% | 90% | 90% | 60% | 100% | 70% | 10% | 70% | 70% | 0% | 40% |  |  |  |  |  |  | 
5 | CCc1cc(C)cc(CC)c1C1=C(OS(=O)(=O)CC)CC2(CCOCC2)CC1=O [Compound P28] | 80% | 30% | 70% | 10% | 80% | 70% | 0% | 10% | 10% | 0% | 0% |  |  |  |  |  |  | 
6 | C#CCOC1=C(c2c(CC)cc(C)cc2CC)C(=O)CC2(CCOCC2)C1 [Compound P31, 9-(2,6-diethyl-4-methylphenyl)-10-prop-2-ynyloxy-3-oxaspiro[5.5]undec-9-en-8-one] | 100% | 100% | 100% | 100% | 100% | 90% | 70% | 70% | 20% | 50% | 60% |  |  |  |  |  |  | 
7 | C=CCOC1=C(c2c(CC)cc(C)cc2CC)C(=O)CC2(CCOCC2)C1 [Compound P34] | 100% | 70% |  | 30% | 100% | 30% | 0% | 0% | 30% | 0% | 0% | 0% |  |  |  |  |  | 
8 | CCOCOC1=C(c2c(CC)cc(C)cc2CC)C(=O)CC2(CCOCC2)C1 [Compound P35] | 100% | 100% |  |  | 100% | 100% | 100% | 100% | 50% | 90% | 50% | 100% |  |  |  |  |  | 
9 | CCCOC1=C(c2c(CC)cc(C)cc2CC)C(=O)CC2(CCOCC2)C1 [Compound P41] | 70% | 10% | 90% | 40% | 0% | 10% | 10% | 10% | 50% | 0% | 0% |  |  |  |  |  |  | 
10 | CCCCCCCCCCCCCC(=O)OC1=C(c2c(CC)cc(C)cc2CC)C(=O)CC2(CCOCC2)C1 [Compound P42] | 100% | 90% |  | 100% | 100% |  | 60% | 40% | 30% | 50% | 50% | 30% |  |  |  |  |  | 
11 | CCCCCCCCCC(=O)OC1=C(c2c(CC)cc(C)cc2CC)C(=O)CC2(CCOCC2)C1 [Compound P43] | 100% | 100% |  | 100% | 100% |  | 100% | 100% | 70% | 80% | 70% | 70% |  |  |  |  |  | 
12 | CCc1cc(C)cc(CC)c1C1=C(O)CC(C2CCCO2)CC1=O (stereo not drawn) [Compound T8] | 100% | 80% |  | 100% | 100% | 100% |  |  |  |  |  |  | 100% | 90% | 90% | 100% | 100% | 90%
